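Test compounds were applied to cells in 96-well plates for 48 hours at 5 doses. Here, GI50 denotes the concentration required for 50% inhibition of growth.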 The source made the active and inactive calls. Rule as the data show it: active = GI50 up to about 1.1 µM and inactive = higher.
How the values were obtained:
Test in all cases: inhibition of tumour cell growth, NCI panel, 48 h
SF-268 = test system: SF-268
OVCAR-8 = test system: OVCAR-8
SF-539 = test system: SF-539
NCI/ADR-RES = test system: NCI/ADR-RES
UO-31 = test system: UO-31
T47D = test system: T47D
NCI-H460 = test system: NCI-H460
SW-620 = test system: SW-620
RPMI-8226 = test system: RPMI-8226
SN12C = test system: SN12C
SK-MEL-2 = test system: SK-MEL-2
UACC-62 = test system: UACC-62
KM12 = test system: KM12
MDA-MB-231 = test system: MDA-MB-231
A549 = test system: A549
SK-MEL-28 = test system: SK-MEL-28
U-251 = test system: U-251
MDA-MB-435 = test system: MDA-MB-435
SNB-19 = test system: SNB-19
SR = test system: SR

SMILES | GI50 (SF-268) | GI50 (OVCAR-8) | GI50 (SF-539) | GI50 (NCI/ADR-RES) | GI50 (UO-31) | GI50 (T47D) | GI50 (NCI-H460) | GI50 (SW-620) | GI50 (RPMI-8226) | GI50 (SN12C) | GI50 (SK-MEL-2) | GI50 (UACC-62) | GI50 (KM12) | GI50 (MDA-MB-231) | GI50 (A549) | GI50 (SK-MEL-28) | GI50 (U-251) | GI50 (MDA-MB-435) | GI50 (SNB-19) | GI50 (SR)
c1cc2c(cc1NC1=NCCO1)CCCC2 | 5.56 µM (inactive) | 3.66 µM (inactive) | 2.74 µM (inactive) | 2.18 µM (inactive) | 6.97 µM (inactive) | 10.6 µM (inactive) | 3.3 µM (inactive) | 9.73 µM (inactive) | 2.92 µM (inactive) | 3.56 µM (inactive) | 2.97 µM (inactive) | 4.11 µM (inactive) | 2.77 µM (inactive) | 2.16 µM (inactive) | 4.8 µM (inactive) | 5.19 µM (inactive) | 4.16 µM (inactive) | 1.57 µM (inactive) | 21.7 µM (inactive) | 
Cc1ccc(/N=N/NCCCCN/N=N/c2ccc(C)cc2)cc1 | 96.8 µM (inactive) | 27.4 µM (inactive) | > 100 µM (inactive) | > 100 µM (inactive) | 0.196 µM (active) | 11.5 µM (inactive) | 12.5 µM (inactive) | > 100 µM (inactive) |  | > 100 µM (inactive) | > 100 µM (inactive) | > 100 µM (inactive) |  | > 100 µM (inactive) | 6.04 µM (inactive) | > 100 µM (inactive) | > 100 µM (inactive) | 11.8 µM (inactive) |  | 17.5 µM (inactive)
CN1C(NN)=NS(=O)(=O)c2ccccc21 | > 100 µM (inactive) | > 100 µM (inactive) | > 100 µM (inactive) | > 100 µM (inactive) | > 100 µM (inactive) | > 100 µM (inactive) | > 100 µM (inactive) | > 100 µM (inactive) |  | > 100 µM (inactive) | > 100 µM (inactive) | > 100 µM (inactive) | > 100 µM (inactive) | > 100 µM (inactive) | > 100 µM (inactive) | > 100 µM (inactive) | > 100 µM (inactive) | > 100 µM (inactive) | > 100 µM (inactive) | 8.51 µM (inactive)
CCN(CC)/C(Cl)=C(Cl)\C(=C1\Nc2ccc(OC)cc21)[N+](=O)[O-] | 50.4 µM (inactive) | 63.4 µM (inactive) |  | 70.6 µM (inactive) | 95.1 µM (inactive) | 24.6 µM (inactive) | 31.1 µM (inactive) | 43 µM (inactive) |  | > 100 µM (inactive) |  | 88.5 µM (inactive) | 69.5 µM (inactive) | 45.5 µM (inactive) | 58.9 µM (inactive) | 55.7 µM (inactive) | 37.5 µM (inactive) | 37.2 µM (inactive) | 61 µM (inactive) | 16.6 µM (inactive)
O=C1NC(N/N=C/c2ccccc2)=N/C1=C\c1ccco1 | 24.5 µM (inactive) | 16.1 µM (inactive) |  | 32.7 µM (inactive) | 46.8 µM (inactive) | 26.9 µM (inactive) | 20.7 µM (inactive) | 46 µM (inactive) | 21.1 µM (inactive) | 35.6 µM (inactive) | 25.9 µM (inactive) | 28.7 µM (inactive) | 47.6 µM (inactive) | 65.2 µM (inactive) | 27.7 µM (inactive) | 51.8 µM (inactive) | 24.8 µM (inactive) | 51.9 µM (inactive) | 36.5 µM (inactive) | 
COC(=O)CCc1c(Cc2ccc[nH]2)[nH]c(C(=O)OCc2ccccc2)c1C | 23.2 µM (inactive) | 24.8 µM (inactive) | 19.1 µM (inactive) | 20.6 µM (inactive) |  |  | > 100 µM (inactive) | 21.6 µM (inactive) | 39.6 µM (inactive) | 18.1 µM (inactive) | 15.4 µM (inactive) | 26.4 µM (inactive) | 16.3 µM (inactive) | 15.3 µM (inactive) | 33.4 µM (inactive) | 20.1 µM (inactive) | 22.3 µM (inactive) | 18.3 µM (inactive) | 28.2 µM (inactive) | 30.8 µM (inactive)
CC(C)(C)OC(=O)N1Cc2cc(O)ccc2C[C@H]1C(=O)O | > 100 µM (inactive) | > 100 µM (inactive) | > 100 µM (inactive) | > 100 µM (inactive) |  | > 100 µM (inactive) | > 100 µM (inactive) | > 100 µM (inactive) |  | > 100 µM (inactive) | > 100 µM (inactive) | > 100 µM (inactive) | > 100 µM (inactive) | > 100 µM (inactive) | > 100 µM (inactive) | > 100 µM (inactive) | > 100 µM (inactive) | > 100 µM (inactive) | > 100 µM (inactive) | > 100 µM (inactive)
C#CCOC(=O)C(N)C(C)O (stereo not drawn) | > 100 µM (inactive) | > 100 µM (inactive) |  | > 100 µM (inactive) | > 100 µM (inactive) | > 100 µM (inactive) |  | > 100 µM (inactive) | > 100 µM (inactive) | > 100 µM (inactive) | > 100 µM (inactive) | > 100 µM (inactive) | > 100 µM (inactive) | > 100 µM (inactive) | > 100 µM (inactive) | > 100 µM (inactive) | > 100 µM (inactive) | > 100 µM (inactive) |  | 
COC(=O)C12C(=O)CC3CCC1C32C(=O)OC (stereo not drawn) | > 100 µM (inactive) | > 100 µM (inactive) | > 100 µM (inactive) | > 100 µM (inactive) | > 100 µM (inactive) |  | > 100 µM (inactive) | > 100 µM (inactive) | > 100 µM (inactive) | > 100 µM (inactive) | > 100 µM (inactive) | > 100 µM (inactive) | > 100 µM (inactive) | > 100 µM (inactive) | > 100 µM (inactive) | > 100 µM (inactive) | > 100 µM (inactive) | > 100 µM (inactive) | > 100 µM (inactive) | > 100 µM (inactive)
COc1ccc(S(=O)(=O)n2c3c(c4ccccc42)[C@@H]2[C@@H](CCCN2C(=O)C[S+]([O-])c2ccc(C)cc2)[C@H](Cl)C3)cc1 (stereo partly drawn) | > 100 µM (inactive) | > 100 µM (inactive) | > 100 µM (inactive) | > 100 µM (inactive) | > 100 µM (inactive) | > 100 µM (inactive) | > 100 µM (inactive) | > 100 µM (inactive) |  | > 100 µM (inactive) | > 100 µM (inactive) | > 100 µM (inactive) | > 100 µM (inactive) | > 100 µM (inactive) | > 100 µM (inactive) | > 100 µM (inactive) | > 100 µM (inactive) | > 100 µM (inactive) | > 100 µM (inactive) | > 100 µM (inactive)
CCC/C=C/C=C/C1CC(O)C(O)C(=O)C1CO (stereo not drawn) | > 100 µM (inactive) | > 100 µM (inactive) | > 100 µM (inactive) | > 100 µM (inactive) | > 100 µM (inactive) | > 100 µM (inactive) | > 100 µM (inactive) | > 100 µM (inactive) | > 100 µM (inactive) | > 100 µM (inactive) | > 100 µM (inactive) | > 100 µM (inactive) | > 100 µM (inactive) | > 100 µM (inactive) | > 100 µM (inactive) | > 100 µM (inactive) | > 100 µM (inactive) | > 100 µM (inactive) | > 100 µM (inactive) | 
Cc1ccc(Cl)cc1/N=N/C(=O)NNc1cc(Cl)ccc1C |  |  |  | 19.9 µM (inactive) | 14.1 µM (inactive) | 33.3 µM (inactive) | 18 µM (inactive) |  | 19.9 µM (inactive) | 29.4 µM (inactive) | 13.9 µM (inactive) | 11.2 µM (inactive) | 33.1 µM (inactive) | 16.8 µM (inactive) |  | 18 µM (inactive) | 19.7 µM (inactive) | 25.2 µM (inactive) | 19.4 µM (inactive) | 37.7 µM (inactive)
O=C(c1cccs1)N(C(=O)N1CCCCC1)c1ccccc1 | > 100 µM (inactive) | > 100 µM (inactive) | > 100 µM (inactive) | > 100 µM (inactive) | 62.8 µM (inactive) | > 100 µM (inactive) |  | > 100 µM (inactive) | > 100 µM (inactive) | > 100 µM (inactive) | > 100 µM (inactive) | > 100 µM (inactive) | > 100 µM (inactive) | > 100 µM (inactive) |  | > 100 µM (inactive) | > 100 µM (inactive) | > 100 µM (inactive) | > 100 µM (inactive) | 
CN(C)CCN1C(=O)c2cccc3cc(N)cc(c23)C1=O [AMONAFIDE] | 5.46 µM (inactive) | 2.14 µM (inactive) | 3.71 µM (inactive) | 3.33 µM (inactive) | 4.18 µM (inactive) | 4.5 µM (inactive) | 0.767 µM (active) | 1.65 µM (inactive) | 2.49 µM (inactive) | 3.19 µM (inactive) | 2.46 µM (inactive) | 3.38 µM (inactive) | 4.37 µM (inactive) | 2.46 µM (inactive) |  | 6.84 µM (inactive) | 3.64 µM (inactive) | 3.37 µM (inactive) | 4.21 µM (inactive) | 
C[C@H](N)C(=O)N[C@@H]1[C@H]2C(=C(O)C[C@@H](O)[C@@H]2O)C(=O)O[C@]1(C)C(Cl)Cl [BACTOBOLIN] | 0.184 µM (active) | 0.167 µM (active) | 0.229 µM (active) | 3.36 µM (inactive) | 0.979 µM (active) | 0.209 µM (active) | 0.111 µM (active) | 0.145 µM (active) |  | 0.164 µM (active) | 0.222 µM (active) | 0.23 µM (active) | 0.172 µM (active) | 0.156 µM (active) | 0.187 µM (active) | 0.234 µM (active) | 0.144 µM (active) | 0.248 µM (active) | 0.167 µM (active) | 0.0776 µM (active)
